# Assay results taken from ChEMBL document CHEMBL1201862, “PubChem BioAssay data set” (2004).
#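 Interpolation was linear, between the two tested concentrations surrounding the appropriate level; five concentrations were tested over 48 hours in 96-well plates. Here, GI50 denotes the concentration required for 50% inhibition of growth.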 Calls of active or inactive are those of the source. Rule as the data show it: active = GI50 up to about 1.1 µM and inactive = higher.
# How the values were obtained:
# Assay in all cases: DTP human tumour cell line panel, 48 h
# M14 = test system: M14
# 786-0 = test system: 786-0
# SF-539 = test system: SF-539
# UACC-62 = test system: UACC-62
# ACHN = test system: ACHN
# OVCAR-4 = test system: OVCAR-4
# K562 = test system: K562
# EKVX = test system: EKVX
# HT-29 = test system: HT-29
# CAKI-1 = test system: CAKI-1
# SK-MEL-5 = test system: SK-MEL-5
# SF-295 = test system: SF-295
# DU-145 = test system: DU-145
# SF-268 = test system: SF-268
# PC-3 = test system: PC-3
# RXF 393 = test system: RXF 393
# HCC 2998 = test system: HCC 2998
# SK-MEL-28 = test system: SK-MEL-28
# SK-OV-3 = test system: SK-OV-3
# OVCAR-3 = test system: OVCAR-3
# Malme-3M = test system: Malme-3M
# LOX IMVI = test system: LOX IMVI
# SR = test system: SR
# HCT-15 = test system: HCT-15
# Hs-578T = test system: Hs-578T
# A549 = test system: A549
# UACC-257 = test system: UACC-257
# COLO 205 = test system: COLO 205
# SN12C = test system: SN12C
# SNB-19 = test system: SNB-19
# KM12 = test system: KM12
# IGROV-1 = test system: IGROV-1
# TK-10 = test system: TK-10
# CCRF-CEM = test system: CCRF-CEM
# UO-31 = test system: UO-31
# HCT-116 = test system: HCT-116
# NCI-H23 = test system: NCI-H23
# OVCAR-8 = test system: OVCAR-8
# SW-620 = test system: SW-620
# NCI/ADR-RES = test system: NCI/ADR-RES
# RPMI-8226 = test system: RPMI-8226
# BT-549 = test system: BT-549
# HOP-92 = test system: HOP-92
# U-251 = test system: U-251
# SNB-75 = test system: SNB-75
# NCI-H522 = test system: NCI-H522
# MDA-MB-435 = test system: MDA-MB-435
# MDA-MB-231 = test system: MDA-MB-231
# MCF7 = test system: MCF7
# HOP-62 = test system: HOP-62
# MOLT-4 = test system: MOLT-4
# NCI-H460 = test system: NCI-H460
# OVCAR-5 = test system: OVCAR-5
# SK-MEL-2 = test system: SK-MEL-2
# MDA-N = test system: MDA-N
# NCI-H226 = test system: NCI-H226
# A498 = test system: A498
# HL-60 = test system: HL-60
# T47D = test system: T47D
structure (smiles),measurement,setting,value
CC(C)(C)n1c(=O)n2n(c1=O)Cc1cccc3cccc(c13)C2,GI50,M14,18.4 µM (inactive)
same,GI50,786-0,19.5 µM (inactive)
same,GI50,SF-539,17.2 µM (inactive)
same,GI50,UACC-62,24 µM (inactive)
same,GI50,ACHN,20.6 µM (inactive)
same,GI50,OVCAR-4,19.6 µM (inactive)
same,GI50,K562,10.3 µM (inactive)
same,GI50,EKVX,15 µM (inactive)
same,GI50,HT-29,16.7 µM (inactive)
same,GI50,CAKI-1,15.1 µM (inactive)
same,GI50,SK-MEL-5,19.5 µM (inactive)
same,GI50,SF-295,17 µM (inactive)
same,GI50,DU-145,35.5 µM (inactive)
same,GI50,SF-268,14.5 µM (inactive)
same,GI50,PC-3,13 µM (inactive)
same,GI50,RXF 393,13.9 µM (inactive)
same,GI50,HCC 2998,21.9 µM (inactive)
same,GI50,SK-MEL-28,21.7 µM (inactive)
same,GI50,SK-OV-3,27.1 µM (inactive)
same,GI50,OVCAR-3,15.4 µM (inactive)
same,GI50,Malme-3M,14.2 µM (inactive)
same,GI50,LOX IMVI,23.8 µM (inactive)
same,GI50,SR,6.7 µM (inactive)
same,GI50,HCT-15,18.5 µM
same,GI50,Hs-578T,12.2 µM (inactive)
same,GI50,A549,26.7 µM (inactive)
same,GI50,UACC-257,22.6 µM (inactive)
same,GI50,COLO 205,29.5 µM (inactive)
same,GI50,SN12C,19.3 µM (inactive)
same,GI50,SNB-19,25.6 µM (inactive)
same,GI50,KM12,14.7 µM (inactive)
same,GI50,IGROV-1,11.3 µM (inactive)
same,GI50,TK-10,29.1 µM (inactive)
same,GI50,CCRF-CEM,4.31 µM (inactive)
same,GI50,UO-31,22.1 µM (inactive)
same,GI50,HCT-116,15.1 µM (inactive)
same,GI50,NCI-H23,25.6 µM (inactive)
same,GI50,OVCAR-8,17.8 µM (inactive)
same,GI50,SW-620,17 µM (inactive)
same,GI50,NCI/ADR-RES,14.4 µM (inactive)
same,GI50,RPMI-8226,14 µM (inactive)
same,GI50,BT-549,31.8 µM (inactive)
same,GI50,HOP-92,28.1 µM (inactive)
same,GI50,U-251,15.3 µM (inactive)
same,GI50,SNB-75,0.834 µM (active)
same,GI50,NCI-H522,2.99 µM (inactive)
same,GI50,MDA-MB-435,23.7 µM (inactive)
same,GI50,MDA-MB-231,32.6 µM (inactive)
same,GI50,MCF7,22.8 µM (inactive)
same,GI50,HOP-62,14 µM (inactive)
same,GI50,MOLT-4,14.8 µM (inactive)
same,GI50,NCI-H460,10.7 µM (inactive)
same,GI50,OVCAR-5,17 µM (inactive)
same,GI50,SK-MEL-2,17.9 µM (inactive)
same,GI50,MDA-N,22.1 µM (inactive)
COc1cc(=O)n2c3ccccc3n(C)c2c1C#N,GI50,M14,> 100 µM (inactive)
same,GI50,786-0,> 100 µM (inactive)
same,GI50,SF-539,> 100 µM (inactive)
same,GI50,UACC-62,> 100 µM (inactive)
same,GI50,ACHN,76.9 µM (inactive)
same,GI50,OVCAR-4,> 100 µM (inactive)
same,GI50,K562,> 100 µM (inactive)
same,GI50,EKVX,> 100 µM (inactive)
same,GI50,HT-29,74.3 µM (inactive)
same,GI50,CAKI-1,> 100 µM (inactive)
same,GI50,SK-MEL-5,> 100 µM (inactive)
same,GI50,SF-295,22.6 µM (inactive)
same,GI50,DU-145,> 100 µM (inactive)
same,GI50,SF-268,> 100 µM (inactive)
same,GI50,PC-3,> 100 µM (inactive)
same,GI50,RXF 393,> 100 µM (inactive)
same,GI50,HCC 2998,> 100 µM (inactive)
same,GI50,SK-OV-3,> 100 µM (inactive)
same,GI50,NCI-H226,> 100 µM (inactive)
same,GI50,OVCAR-3,> 100 µM (inactive)
same,GI50,Malme-3M,> 100 µM (inactive)
same,GI50,A498,> 100 µM (inactive)
same,GI50,SR,> 100 µM (inactive)
same,GI50,HCT-15,> 100 µM
same,GI50,Hs-578T,> 100 µM (inactive)
same,GI50,A549,> 100 µM (inactive)
same,GI50,UACC-257,> 100 µM (inactive)
same,GI50,COLO 205,> 100 µM (inactive)
same,GI50,SN12C,> 100 µM (inactive)
same,GI50,SNB-19,> 100 µM (inactive)
same,GI50,KM12,> 100 µM (inactive)
same,GI50,IGROV-1,> 100 µM (inactive)
same,GI50,TK-10,> 100 µM (inactive)
same,GI50,CCRF-CEM,> 100 µM (inactive)
same,GI50,UO-31,> 100 µM (inactive)
same,GI50,HCT-116,43.8 µM (inactive)
same,GI50,NCI-H23,> 100 µM (inactive)
same,GI50,OVCAR-8,> 100 µM (inactive)
same,GI50,SW-620,> 100 µM (inactive)
same,GI50,NCI/ADR-RES,> 100 µM (inactive)
same,GI50,RPMI-8226,> 100 µM (inactive)
same,GI50,BT-549,> 100 µM (inactive)
same,GI50,HOP-92,> 100 µM (inactive)
same,GI50,U-251,> 100 µM (inactive)
same,GI50,SNB-75,> 100 µM (inactive)
same,GI50,NCI-H522,> 100 µM (inactive)
same,GI50,MDA-MB-435,> 100 µM (inactive)
same,GI50,MDA-MB-231,> 100 µM (inactive)
same,GI50,MCF7,> 100 µM (inactive)
same,GI50,HOP-62,> 100 µM (inactive)
same,GI50,MOLT-4,45.3 µM (inactive)
same,GI50,NCI-H460,> 100 µM (inactive)
same,GI50,OVCAR-5,> 100 µM (inactive)
same,GI50,SK-MEL-2,> 100 µM (inactive)
same,GI50,MDA-N,> 100 µM (inactive)
same,GI50,HL-60,> 100 µM (inactive)
COc1ccc(C(Cc2ccccc2)C2NC(=S)NC2=O)cc1 (stereo unspecified),GI50,M14,> 25 µM (inactive)
same,GI50,786-0,> 25 µM (inactive)
same,GI50,SF-539,> 25 µM (inactive)
same,GI50,ACHN,> 25 µM (inactive)
same,GI50,OVCAR-4,> 25 µM (inactive)
same,GI50,K562,> 25 µM (inactive)
same,GI50,EKVX,> 25 µM (inactive)
same,GI50,HT-29,> 25 µM (inactive)
same,GI50,CAKI-1,> 25 µM (inactive)
same,GI50,SK-MEL-5,> 25 µM (inactive)
same,GI50,SF-295,> 25 µM (inactive)
same,GI50,DU-145,> 25 µM (inactive)
same,GI50,SF-268,> 25 µM (inactive)
same,GI50,PC-3,> 25 µM (inactive)
same,GI50,RXF 393,> 25 µM (inactive)
same,GI50,SK-MEL-28,> 25 µM (inactive)
same,GI50,SK-OV-3,> 25 µM (inactive)
same,GI50,NCI-H226,> 25 µM (inactive)
same,GI50,OVCAR-3,> 25 µM (inactive)
same,GI50,Malme-3M,> 25 µM (inactive)
same,GI50,LOX IMVI,> 25 µM (inactive)
same,GI50,A498,> 25 µM (inactive)
same,GI50,SR,9.27 µM (inactive)
same,GI50,HCT-15,> 25 µM
same,GI50,Hs-578T,> 25 µM (inactive)
same,GI50,A549,> 25 µM (inactive)
same,GI50,UACC-257,> 25 µM (inactive)
same,GI50,COLO 205,> 25 µM (inactive)
same,GI50,SN12C,> 25 µM (inactive)
same,GI50,SNB-19,> 25 µM (inactive)
same,GI50,KM12,> 25 µM (inactive)
same,GI50,IGROV-1,> 25 µM (inactive)
same,GI50,TK-10,> 25 µM (inactive)
same,GI50,CCRF-CEM,> 25 µM (inactive)
same,GI50,UO-31,> 25 µM (inactive)
same,GI50,HCT-116,> 25 µM (inactive)
same,GI50,T47D,> 25 µM (inactive)
same,GI50,NCI-H23,> 25 µM (inactive)
same,GI50,OVCAR-8,> 25 µM (inactive)
same,GI50,SW-620,> 25 µM (inactive)
same,GI50,NCI/ADR-RES,> 25 µM (inactive)
same,GI50,RPMI-8226,> 25 µM (inactive)
same,GI50,HOP-92,> 25 µM (inactive)
same,GI50,U-251,> 25 µM (inactive)
same,GI50,SNB-75,> 25 µM (inactive)
same,GI50,NCI-H522,> 25 µM (inactive)
same,GI50,MDA-MB-435,> 25 µM (inactive)
same,GI50,MDA-MB-231,> 25 µM (inactive)
same,GI50,MCF7,> 25 µM (inactive)
same,GI50,HOP-62,> 25 µM (inactive)
same,GI50,MOLT-4,> 25 µM (inactive)
same,GI50,NCI-H460,> 25 µM (inactive)
same,GI50,OVCAR-5,> 25 µM (inactive)
same,GI50,SK-MEL-2,> 25 µM (inactive)
same,GI50,HL-60,> 25 µM (inactive)
